Test results taken from the supplement of paper PMC7840683.

System: HepaRG
Assay: LDH release cytotoxicity, % of total lysis control; higher = more cytotoxic
Details: 48 h
Outline: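 Eight-point half-log series of test chemicals, the highest at 100 µM, were given in duplicate for 48 h to single-lot HepaRG cells on collagen I-coated 96-well plates in serum-free induction medium with 0.5% DMSO. A Tecan Safire read resorufin fluorescence from CytoTox-ONE as a measure of LDH in 50 µL spent medium, with 0.1% Triton X in total lysis wells. Percent cytotoxicity was normalized to on-plate vehicle and total lysis controls and averaged over the duplicates.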

Oc1ccc2c(c1)-c1ccccc1C2 [3-Hydroxyfluorene]
Details | LDH release cytotoxicity [%]
0.03162 µM | -1.48
0.1 µM | -1.06
0.3162278 µM | -0.414
1 µM | -1.04
3.16228 µM | -0.932
10 µM | -0.0118
31.6228 µM | 0.438
100 µM | 3.69

CCCCNC(=O)OCC#CI [3-Iodo-2-propynyl-N-butylcarbamate]
Details | LDH release cytotoxicity [%]
0.0301998 µM | 3.83
0.0955 µM | 4.17
0.301997 µM | 4.24
0.955 µM | 4.49
3.01998 µM | 4.53
9.55 µM | 4.22
30.199752 µM | 19.6
95.5 µM | 82.9

Cc1cccc(N)c1 [3-Methylaniline]
Details | LDH release cytotoxicity [%]
0.03162 µM | -1.1
0.1 µM | -0.218
0.3162278 µM | -1
1 µM | -0.834
3.16228 µM | -0.813
10 µM | 0.339
31.6228 µM | 0.0207
100 µM | 1.94

CC(=O)OCCC(C)C [3-Methylbutyl acetate]
Details | LDH release cytotoxicity [%]
0.03162 µM | -1.61
0.1 µM | -1.62
0.3162278 µM | -0.432
1 µM | -1.89
3.16228 µM | -0.737
10 µM | 0.266
31.6228 µM | 1.88
100 µM | 2.4

Cc1cccc([N+](=O)[O-])c1 [3-Nitrotoluene]
Details | LDH release cytotoxicity [%]
0.0324133 µM | -0.599
0.1025 µM | -1.561
0.324134 µM | -1.45
1.025 µM | -0.805
3.24133 µM | -1.27
10.25 µM | -0.551
32.4133 µM | -0.321
102.5 µM | 0.844

O=C(O)c1cccc(Oc2ccccc2)c1 [3-Phenoxybenzoic acid]
Details | LDH release cytotoxicity [%]
0.0253 µM | 2.02
0.08 µM | 1.68
0.252982 µM | 1.75
0.8 µM | 0.842
2.52982 µM | 0.659
8 µM | -0.233
25.2982 µM | -0.367
80 µM | -1.57

N#Cc1cccnc1 [3-Pyridinecarbonitrile]
Details | LDH release cytotoxicity [%]
0.03162 µM | -1.36
0.1 µM | -2.41
0.3162278 µM | -2.8
1 µM | -2.872
3.16228 µM | -3.04
10 µM | -2.26
31.6228 µM | -2.04
100 µM | -1.31

CC(c1ccc(O)cc1)(c1ccc(O)cc1)c1ccc(O)cc1 [4,4',4''-Ethane-1,1,1-triyltriphenol]
Details | LDH release cytotoxicity [%]
0.03162 µM | -1.89
0.1 µM | -1.24
0.3162278 µM | -1.7
1 µM | -1.8
3.16228 µM | -0.727
10 µM | -1.47
31.6228 µM | -1.43
100 µM | -0.486

c1cc(-c2ccncc2)ccn1 [4,4'-Bipyridine]
Details | LDH release cytotoxicity [%]
0.03162 µM | -0.85
0.1 µM | -1.15
0.3162278 µM | -0.941
1 µM | -1.18
3.16228 µM | -1.05
10 µM | 4.58
31.6228 µM | 24
100 µM | 18

Cc1cc(Cc2ccc(N)c(C)c2)ccc1N [4,4'-Diamino-3,3'-dimethyldiphenylmethane]
Details | LDH release cytotoxicity [%]
0.03162 µM | -1.54
0.1 µM | -0.939
0.3162278 µM | -0.759
1 µM | -1.39
3.16228 µM | -0.662
10 µM | -0.124
31.6228 µM | -0.39
100 µM | -0.749

Nc1ccc(Cc2ccc(N)cc2)cc1 [4,4'-Diaminobiphenyl methane]
Details | LDH release cytotoxicity [%]
0.03162 µM | -0.659
0.1 µM | -2.27
0.3162278 µM | -2.24
1 µM | -2.78
3.16228 µM | -2.52
10 µM | -2.46
31.6228 µM | -1.8
100 µM | 0.228

CN(C)c1ccc(Cc2ccc(N(C)C)cc2)cc1 [4,4'-Methylenebis(N,N-dimethylaniline)]
Details | LDH release cytotoxicity [%]
0.03162 µM | -0.47
0.1 µM | -1.28
0.3162278 µM | -1.73
1 µM | -1.6
3.16228 µM | -1.29
10 µM | -1.04
31.6228 µM | -0.536
100 µM | 0.0839

Nc1ccc(Oc2ccc(N)cc2)cc1 [4,4'-Oxydianiline]
Details | LDH release cytotoxicity [%]
0.031623 µM | -1.51
0.1 µM | -3.05
0.316228 µM | -1.18
1 µM | -2.52
3.16228 µM | -1.772
10 µM | -0.999
31.6228 µM | 17
100 µM | 62.8

C=CCc1cc(S(=O)(=O)c2ccc(O)c(CC=C)c2)ccc1O [4,4'-Sulfonylbis[2-(prop-2-en-1-yl)phenol]]
Details | LDH release cytotoxicity [%]
0.03162 µM | -0.87
0.1 µM | -2.88
0.3162278 µM | -1.86
1 µM | -2.39
3.16228 µM | -2.01
10 µM | -1.55
31.6228 µM | -1.16
100 µM | 0.193

CC(C)(C)CC(C)(C)c1ccc(O)cc1 [4-(1,1,3,3-Tetramethylbutyl)phenol]
Details | LDH release cytotoxicity [%]
0.03162 µM | -1.49
0.1 µM | -1.58
0.3162278 µM | -1.966
1 µM | -1.68
3.16228 µM | -1.21
10 µM | -1.69
31.6228 µM | -0.473
100 µM | 42.9

CCC(C)(C)C1CCC(O)CC1 (configuration not stated) [4-(2-Methylbutan-2-yl)cyclohexanol]
Details | LDH release cytotoxicity [%]
0.03162 µM | -0.419
0.1 µM | -1.92
0.3162278 µM | -1.25
1 µM | -1.82
3.16228 µM | -2.17
10 µM | -1.05
31.6228 µM | -1.3
100 µM | 0.0243

CCC(C)(C)c1ccc(O)cc1 [4-(2-Methylbutan-2-yl)phenol]
Details | LDH release cytotoxicity [%]
0.03162 µM | -0.822
0.1 µM | -1.57
0.3162278 µM | -1.05
1 µM | -1.22
3.16228 µM | -1.65
10 µM | -0.249
31.6228 µM | -1.75
100 µM | 0.707

CCC(C)c1ccc(O)cc1 (configuration not stated) [4-(Butan-2-yl)phenol]
Details | LDH release cytotoxicity [%]
0.03162 µM | -1.68
0.1 µM | -2.9
0.3162278 µM | -2.9
1 µM | -3.15
3.16228 µM | -2.86
10 µM | -2.62
31.6228 µM | -1.77
100 µM | -0.982

Nn1cnnc1 [4-Amino-1,2,4-triazole]
Details | LDH release cytotoxicity [%]
0.0320971 µM | -2.94
0.1015 µM | -2.79
0.320971 µM | -3.1
1.015 µM | -3.38
3.2097118 µM | -2.7
10.15 µM | -3.19
32.0971 µM | -3.08
101.5 µM | 0.447
